Measured values from patent publication US20260022098A1, “BULLEYACONITINE A DERIVATIVE WITH ANALGESIC ACTIVITY, AND PREPARATION METHOD AND APPLICATION THEREOF” (priority 2023, published 2026).
Read-outs that look alike come from different tables or passages of the source. Marks after values point to notes of the source that are not given here.

Legend:
RAW 264.7 cells = experiment: MTT assay, viability of RAW 264.7 cells; type: cell-based; details: compound diluted to 30 mol/L (so in the source), 12 h
Method: The effect of the compound to be tested on viability of RAW 264.7 cells at a concentration of […] was assessed through MTT assay (Methylthiazolyldiphenyl-tetrazolium bromide assay), and the inhibition on NO release in the inflammatory response of LPS-induced RAW 264.7 cells at 30 µM was determined through Griess method. Specific methods were described as follows.
An MTT solution (5 mg/mL) was prepared with a PBS buffer, filter-sterilized through a 0.22 μm filter membrane, and stored protected from light at low temperature. Each compound was dissolved in DMSO to prepare a 50 mmol/L stock solution, and stored from light at low (frozen) temperature. The stock solution was diluted to 30 mol/L with DMEM (Dulbecco's modified Eagle's medium) containing 10% FBS (fetal bovine serum). RAW264.7 cells beyond third passage were added to a culture medium and gently pipetted to detach, forming a cell suspension. 10 μL of the cell suspension was applied onto a hemocytometer slide for counting, and cells were seeded into 96-well plates at a density of 6×10^3 cells per well with 100 μL of the cell suspension per well. After incubated at 37° C. with 5% CO2 for 24 h, supernatant was removed. A zero-adjustment group (CO group) received 100 μL of medium per well, the blank group (CK group) received 100 μL of DMSO (1/1000 dilution) per well, and the experimental groups received 100 μL of the test samples per well. After 12 h, supernatant was removed, and […] of MTT solution was added into each well at 120 μL per well. After incubated in COz at a constant temperature for 4 h, supernatant was removed, and DMSO was added into each well by 150 μL per well. The mixture was shaken at 50 r/min for 10 min and subjected to an absorbance test at 492 nm. Relative cell viability (x) was calculated through a formula as follows: relative cell viability (%)=(ODTest−ODCO)/(ODCK−ODCO)×100%.

Kunming mice [1] = experiment: Acute toxicity / median lethal dose (LD50) determination, subcutaneous injection; type: in vivo; design: key to Acute toxicity: if death occurred, (+) represented as positive; if no death occurred, (−) represented as negative; details: mice administered 20 mg/kg subcutaneously, presence of death within 24 h
Method: (§1) The experimental animals were Kunming mice (male:female=1:1), weighed 22+2 g, which were provided by Chengdu dossy experimental animals Co., ltd., China. The mice were kept in the animal room of the School of Life Science and Engineering, Southwest Jiaotong University, where the animal room was set at a temperature of 23±2° C., a humidity of […] and a photoperiod of 16:8 h (L:D). Before the experiment, the mice were freely fed for 2-3 days with water and feed to adapt to the new environment. Then, the mice were treated by water and food fasting for 12 h. 10 animals were allocated to each group to ensure that there are at least 6 sets of valid data in each group. The animal experiments were carried out in strict accordance with the national regulations on the management of experimental animals.
(§2) The compounds prepared in the examples provided herein (test sample set) and bulleyaconitine A (positive control set) were all dissolved with 0.1 mol/L HCl according to a molar ratio of 1:1, and then diluted with physiological saline to a concentration to be determined. Blank control was physiological saline containing 0.1 mol/L HCl. The animals in the control groups were subjected to the same treatment as those in experimental groups except that samples to be test were replaced with physiological saline.
(2) Median Lethal Dose (LD50) Determination
The sample to be tested was dissolved with 0.1 mol/L HCl according to the amount of the substance ratio of 1:1, and diluted with physiological saline according to the required concentration. 10 mice in each group were randomly selected, half of which were male and half of which were female, and were placed in independent cages. Each mouse was injected subcutaneously with different sample solutions to be tested according to a dose of 0.1 mL/10 g body weight. In the preliminary toxicity experiment, the measured concentration was 20 mg/kg, and then based on the survival rate of the experimental animals in the preliminary experiment, the sample to be tested was set to at least 5 groups with different concentration dose according to the proportional series. The survival rate of mice within 24 h was recorded. The obtained dose-survival rate data was input into the SPSS software (version 17.2), and the LD50 of the sample was calculated according to the Probit regression method.

Kunming mice [2] = experiment: Analgesic activity by acetic acid-induced writhing method (writhing inhibition rate, ED50); type: in vivo; details: Mus musculus, sc, read-out: Analgesia rate (%) ± SEM
Method: as §1, §2
(1) Determination of Analgesic Activity Through an Acetic Acid-Induced Writhing Method
10 mice were randomly selected, male:female=1:1, were placed in independent cages. Each mouse was injected subcutaneously with the sample solution mentioned above at a dose of 0.1 mL/10 g body weight. After 15 min, a 0.7% acetic acid solution was intraperitoneally injected. A number of writhing reactions in each mouse within 15 minutes was recorded. The group that the mice were injected with physiological saline subcutaneously was the blank group; the group that the mice were injected with the sample to be tested was the experimental group; and the group that the mice were injected with bulleyaconitine A was the positive group. The analgesic activity was represented by a percentage of the reduced number of writhing compared to the blank group (writhing inhibition rate), which were specifically as follows: writhing inhibition rate (analgesic activity)=(average number of writhing times in the blank group-average number of writhing times in the experimental group)/average number of writhing times in the blank group×100%.
Median Effective Dose (ED50) Determination
The sample to be tested was dissolved with 0.1 mol/L HCl according to the amount of the substance ratio of 1:1, and diluted with physiological saline according to the proportional series to obtain at least 5 groups with different dose concentrations. The writhing inhibition rate of each dose group was tested according to the acetic acid-induced writhing method mentioned above. The obtained dose-writhing inhibition data was entered into the statistical product and service solutions (SPSS) software (version 17.2), and the ED50 of the sample to be tested was calculated through the Probit regression method.

[3] = dosing concentration 0.05 mg/kg, subcutaneous, acetic acid-induced writhing, mice

Structure (SMILES)	RAW cell viability (RAW 264.7 cells)	Acute toxicity (Kunming mice [1])	inhibition in vivo at 0.05 mg/kg (Kunming mice [2]; [3]) [%]	inhibition in vivo at 0.5 mg/kg (Kunming mice [2]; dosing concentration 0.5 mg/kg, subcutaneous, acetic acid-induced writhing, mice) [%]	inhibition in vivo at 0.05 mg/kg (Kunming mice [2]) [%]
CCO[C@]12C[C@H](OC)[C@@]3(OC(=O)C4CCCCC4)CC(C1[C@H]3OC(=O)c1ccc(OC)cc1)[C@]13C4[C@@H](OC)C2[C@H]1N(CC)C[C@]4(COC)CC[C@@H]3OC (stereo partly drawn) [Compound 14]	13.36 ± 0.9***^ %	−	40.3 ± 1.7	44.4 ± 2.1	
CCO[C@]12C[C@H](OC)[C@@]3(OC(=O)c4cccnc4)CC(C1[C@H]3OC(=O)c1ccc(OC)cc1)[C@]13C4[C@@H](OC)C2[C@H]1N(CC)C[C@]4(COC)CC[C@@H]3OC (stereo partly drawn) [Compound 28]	83.03 ± 4.69**^ %	−	36.1 ± 2.1		
CCO[C@]12C[C@H](OC)[C@@]3(OC(=O)c4ccc(CC)cc4)CC(C1[C@H]3OC(=O)c1ccc(CC)cc1)[C@]13C4[C@@H](OC)C2[C@H]1N(CC)C[C@]4(COC)CC[C@@H]3OC (stereo partly drawn) [Compound 63]		−			0
CCOc1ccc(C(=O)O[C@]23CC4C([C@H]2OC(=O)c2ccc(OC)cc2)[C@](OC(C)=O)(C[C@@H]3OC)C2[C@H](OC)C3[C@@]5(COC)CC[C@H](OC)[C@@]43[C@@H]2N(CC)C5)cc1 (stereo partly drawn) [Compound 37]		−			21.2 ± 1.7
CCO[C@]12C[C@H](OC)[C@@]3(OC(=O)c4ccc(OC(F)(F)F)cc4)CC(C1[C@H]3OC(=O)c1ccc(OC(F)(F)F)cc1)[C@]13C4[C@@H](OC)C2[C@H]1N(CC)C[C@]4(COC)CC[C@@H]3OC (stereo partly drawn) [Compound 94]		−			0
CCOc1ccc(C(=O)O[C@@H]2C3C4C[C@]2(OC(=O)c2ccc(OCC)cc2)[C@@H](OC)C[C@]3(OCC)C2[C@H](OC)C3[C@@]5(COC)CC[C@H](OC)[C@@]43[C@@H]2N(CC)C5)cc1 (stereo partly drawn) [Compound 35]		−			0
CCO[C@]12C[C@H](OC)[C@@]3(OC(=O)c4ccncc4)CC(C1[C@H]3OC(=O)c1ccncc1)[C@]13C4[C@@H](OC)C2[C@H]1N(CC)C[C@]4(COC)CC[C@@H]3OC (stereo partly drawn) [Compound 49]		−			13.7 ± 1
CCO[C@]12C[C@H](OC)[C@@]3(O)CC(C1[C@H]3O)[C@]13C4[C@@H](OC)C2[C@H]1N(CC)C[C@]4(COC)CC[C@@H]3OC (stereo partly drawn) [Compound 4]		−			5.63 ± 1.1
CCO[C@]12C[C@H](OC)[C@@]3(OC(=O)c4ccccc4)CC(C1[C@H]3OC(=O)c1ccc(OC)cc1)[C@]13C4[C@@H](OC)C2[C@H]1N(CC)C[C@]4(COC)CC[C@@H]3OC (stereo partly drawn) [Compound 53]		−			0
CCO[C@]12C[C@H](OC)[C@@]3(OC(=O)c4cccc(OC)c4)CC(C1[C@H]3OC(=O)c1cccc(OC)c1)[C@]13C4[C@@H](OC)C2[C@H]1N(CC)C[C@]4(COC)CC[C@@H]3OC (stereo partly drawn) [Compound 76]		−			0
CCO[C@]12C[C@H](OC)[C@@]3(OC(=O)c4cccc(Cl)c4)CC(C1[C@H]3OC(=O)c1cccc(Cl)c1)[C@]13C4[C@@H](OC)C2[C@H]1N(CC)C[C@]4(COC)CC[C@@H]3OC (stereo partly drawn) [Compound 71]		−			4.11 ± 2
CCO[C@]12C[C@H](OC)[C@@]3(OC(=O)c4ccncc4)CC(C1[C@H]3OC(=O)c1ccc(OC)cc1)[C@]13C4[C@@H](OC)C2[C@H]1N(CC)C[C@]4(COC)CC[C@@H]3OC (stereo partly drawn) [Compound 50]		−			33.2 ± 1.4
CCO[C@]12C[C@H](OC)[C@@]3(OC(C)=O)CC(C1[C@H]3OC(=O)c1ccc(OC)cc1)[C@]13C4[C@@H](OC)C2[C@H]1N(CC)C[C@]4(COC)CC[C@@H]3OC (stereo partly drawn) [Compound 42]		−			23 ± 1.7
CCN1C[C@]2(COC)CC[C@H](OC)[C@@]34C5C[C@]6(OC(=O)c7ccncc7)[C@@H](OC)C[C@@](OC(C)=O)(C5[C@H]6OC(=O)c5ccc(OC)cc5)C([C@H](OC)C23)[C@@H]14 (stereo partly drawn) [Compound 51]		−			32.6 ± 1.7
CCO[C@]12C[C@H](OC)[C@@]3(OC(=O)c4ccc(Cl)cc4)CC(C1[C@H]3OC(=O)c1ccc(Cl)cc1)[C@]13C4[C@@H](OC)C2[C@H]1N(CC)C[C@]4(COC)CC[C@@H]3OC (stereo partly drawn) [Compound 65]		−			32.3 ± 1.7
CCO[C@]12C[C@H](OC)[C@@]3(OC(=O)c4ccc(Cl)s4)CC(C1[C@H]3OC(=O)c1ccc(Cl)s1)[C@]13C4[C@@H](OC)C2[C@H]1N(CC)C[C@]4(COC)CC[C@@H]3OC (stereo partly drawn) [Compound 18]		−			13.4 ± 0.6
CCN1C[C@]2(COC)CC[C@H](OC)[C@@]34C5C[C@]6(OC(=O)c7ccc(C)cc7)[C@@H](OC)C[C@@](OC(C)=O)(C5[C@H]6OC(=O)c5ccc(OC)cc5)C([C@H](OC)C23)[C@@H]14 (stereo partly drawn) [Compound 58]		−			28.8 ± 1.8
CCN1C[C@]2(COC)CC[C@H](OC)[C@@]34C5C[C@]6(OC(=O)c7cccs7)[C@@H](OC)C[C@@](OC(C)=O)(C5[C@H]6OC(=O)c5ccc(OC)cc5)C([C@H](OC)C23)[C@@H]14 (stereo partly drawn) [Compound 21]		−			0
CCN1C[C@@]2(COC)C3[C@@H](OC)C4[C@@H]1[C@@]3(C1C[C@]3(O)[C@@H](OC)C[C@@]4(OC)C1[C@H]3O)[C@@H](OC)C[C@H]2O (stereo partly drawn) [Compound 3]		−			9.78 ± 1.9
CCO[C@]12C[C@H](OC)[C@@]3(OC(=O)c4ccccc4Br)CC(C1[C@H]3OC(=O)c1ccccc1Br)[C@]13C4[C@@H](OC)C2[C@H]1N(CC)C[C@]4(COC)CC[C@@H]3OC (stereo partly drawn) [Compound 67]		−			17.8 ± 1.9
CCOc1ccc(C(=O)O[C@]23CC4C([C@H]2OC(=O)c2ccc(OC)cc2)[C@](OCC)(C[C@@H]3OC)C2[C@H](OC)C3[C@@]5(COC)CC[C@H](OC)[C@@]43[C@@H]2N(CC)C5)cc1 (stereo partly drawn) [Compound 36]		−			13.6 ± 2.5
